Experimental data as given in patent US20180360799A1, “Nitrofuran Derivatives That Induce Apoptosis in Breast Cancer Cells by Activating Protein Expression” (Oklahoma Medical Research Foundation, priority 2015, published 2018).

Experiments:
Assay type in all cases: cell-based, human
[1] = system: ER stress response elements (ERSE)-Luc reporter; experiment: ERSE-Luc reporter assay in HEK293 cells; settings: 10 μM, 24 h
Method: FIG. 3G is a graph showing HEK293 cells stably expressing CHOP-Luc, ERSE-Luc, or UPRE-luc reporters were treated with DMSO, a 5-nitrofuran-2-amide derivative, or tunicamycin. HEK293 cells stably expressing CHOP-Luc, ERSE-Luc, or UPRE-luc reporters were treated with DMSO, compound 3d (10 μM), or Tm (1 μg/mL) for 24 h, and luciferase activity was measured using the Bright-Glo assay. Results are the means of 4 replicate wells and are representative of 3 independent experiments.
(§1) The inventor next asked whether the IRE1α and ATF6 branches of the unfolded protein response were also activated by compound 3d treatment of TNBC cells. […] XBP1 mRNA splicing, as measured by XBP1s levels, increased only slightly in the first 24 h after compound 3d treatment of HCC-1806 cells (from 11% of total XBP1 at 0 h to 15˜20% at 2˜24 h). […] Next, it was determined whether compound 3d activates the ATF6 pathway by evaluating its effect on the activity of an ER stress response elements (ERSE)-Luc reporter stably established in HEK293 cell line.
The HEK293T CHOP reporter cell line (CHOP-Luc) was previously described.^21 HEK293T cells were stably transfected with ERSE-Luciferase^25 and UPRE-Luciferase^23 reporters to generate ERSE-Luc and UPRE-Luc reporter cell lines, respectively. […] Luciferase activity was measured with a Bright-Glo kit 24 h later.

[2] = system: XBP1 mRNA splicing (IRE1α pathway); experiment: XBP1 mRNA splicing by RT-PCR in HCC-1806 cells; settings: HCC-1806, 3d 10 μM, at 2~24 h (11% at 0 h)
Method: FIG. 3E is a graph showing XBP1 mRNA levels in HCC-1806 cells treated with tunicamycin or a 5-nitrofuran-2-amide derivative compound 3d. HCC-1806 cells were treated with compound 3d (10 μM) or tunicamycin (Tm, 1 μg/mL) for the indicated times. XBP1 mRNA levels were analyzed by RT-PCR and the products were resolved by agarose gel electrophoresis. The full-length (unspliced, XBP1u) and spliced (XBP1s) forms of XBP1 mRNA are indicated. GAPDH mRNA was used as an internal control.
The percentage of XBP1s relative to total XBP1 was calculated as: (XBP1s/[XBP1s+XBP1u])×100%. The data shown are representative of 3 independent studies.
as §1, with “line. […]” for “line.”

[3] = system: CHOP gene; experiment: CHOP mRNA by qRT-PCR in HCC-1806 cells
Method: The results are the means of 4 replicate wells and are representative of 3 independent studies. *P<0.05 and **P<0.01 by Student's t-test compared with cells treated with DMSO (in FIG. 3A) or with 3d for 0 h (in FIG. 3B). […] The results are the means of 4 replicate wells and are representative of 3 independent studies. *P<0.05 and **P<0.01 by Student's t-test compared with cells treated with compound 3d for 0 h. […] Total RNA was extracted using TRIzol reagent (Invitrogen, Carlsbad, Calif.) according to the manufacturer's protocol, and 2 μg of total RNA was reverse transcribed using a Superscript kit (Invitrogen). Real-time PCR was performed in 96-well format using SYBR Select Master Mix (Applied Biosystems, Foster City, Calif.) with an ABI 7500 PCR system (Applied Biosystems). The primer sequences used were: Human CHOP: SEQ ID NO: 1 [NT] and SEQ ID NO: 2 [NT]. Human ATF4: SEQ ID NO: 3 [NT] and SEQ ID NO: 4 [NT]. Human XBP1: SEQ ID NO: 5 [NT] and SEQ ID NO: 6 [NT]. Human Cyclophilin A: SEQ ID NO: 7 [NT] and SEQ ID NO: 8 [NT]. Human GAPDH: SEQ ID NO: 9 [NT] and SEQ ID NO: 10 [NT].

CC1CCN(c2ccc(NC(=O)c3ccc([N+](=O)[O-])o3)cc2)CC1 [Compound 3d] was tested, and the “effect on ERSE-driven luciferase activity, in words” value [1] was “no significant effect”, the “XBP1s, percentage of total XBP1” value [2] was 15˜20% and the “CHOP transcription, time dependence” value ([3]; HCC-1806, 10 μM, indicated times) was “increased CHOP transcription in a time-dependent fashion”. The “CHOP mRNA levels relative to DMSO-treated cells” value ([3]; HCC-1806, dose- and time-dependent studies) was “up to 9 fold” and the “CHOP mRNA levels, dose dependence” value ([3]; HCC-1806, indicated concentrations, 8 h) was “significantly increased CHOP mRNA levels in a dose-dependent manner”.
